Measured values: the NIST ThermoML archive (doi:10.1021/acs.jced.5b00428)

Columns and labels:
[1] = mn = molality of the nth substance listed, in mol/kg; conditions: 100 kPa, Liquid; for viscosity: Capillary tube (Ostwald / Ubbelohde) method; for mass density: Vibrating tube method
[2] = 101 kPa, Liquid, Capillary tube (Ostwald / Ubbelohde) method

CCCCn1cc[n+](C)c1.[Br-] [1-butyl-3-methylimidazolium bromide] + O
[1]
Conditions	mass density, m1 = 0.0046 [kg/m3]	mass density, m1 = 0.0141 [kg/m3]	mass density, m1 = 0.0231 [kg/m3]	viscosity, m1 = 0.0046 [mPa·s]	viscosity, m1 = 0.0141 [mPa·s]	viscosity, m1 = 0.0231 [mPa·s]
288.15 K	999.318	999.804	1000.22	1.14	1.146	1.148
293.15 K	998.492	998.891	999.304	1.003	1.008	1.012
298.15 K	997.279	997.685	998.078	0.891	0.895	0.897
303.15 K	995.876	996.322	996.69	0.8	0.8	0.804
308.15 K	994.252	994.678	995.112	0.721	0.722	0.725
313.15 K	992.415	992.871	993.178	0.654	0.656	0.657

O [water]
[2]
Conditions	viscosity [mPa·s]
288.15 K	1.138
293.15 K	1.001
298.15 K	0.89
303.15 K	0.797
308.15 K	0.719
313.15 K	0.653

O [water] + CCCCn1cc[n+](C)c1.[Br-]
[1], m2 = 0
Conditions	viscosity [mPa·s]
288.15 K	1.138
293.15 K	1.001
298.15 K	0.89
303.15 K	0.797
308.15 K	0.719
313.15 K	0.653
